Values joined by “and” are separate entries in the source; they are usually repeats but may differ in a detail not shown here. Identical values can stand only once.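 Five compound concentrations were applied to cells in 96-well plates for 48 hours; endpoints were derived by simple linear interpolation of the resulting dose-response curve. Abbreviation: GI50, concentration required for 50% inhibition of growth. TGI: total growth inhibition.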 Where a SMILES comes first, the peptide text is derived from it. [ ]: non-standard residue; d: D form. The star is where a group is joined. ξ: configuration not given here. X3 = COc1ccc(C(N*)c2ccc(OC)cc2)cc1; NMeF = CN[C@@H](Cc1ccccc1)C(=O)O; NMeD = CN[C@@H](CC(=O)O)C(=O)O; NMeV = CN[C@H](C(=O)O)C(C)C; ξNMeV = CNC(C(=O)O)C(C)C; Boc = CC(C)(C)OC(=O)*; ξNMeA = CNC(C)C(=O)O; ξV = CC(C)C(N)C(=O)O Some results are limits rather than exact numbers.

Test systems include SN12C renal; MALME-3M melanoma; SK-MEL-5 melanoma; SF-268 CNS; NCI-H522 lung; RXF 393 renal; DLD-1 colon; DMS 273 small cell lung; UACC-62 melanoma; CAKI-1 renal.
What all share (assay): inhibition of tumour cell growth, NCI panel, 48 h

In the case of `O=c1ccc2ccccc2cc1[O-].O=c1ccc2ccccc2cc1[O-].[O]=[U+2]=[O]`, the GI50 was 23.5 µM with SN12C renal; 5.72 µM in the assay with MALME-3M melanoma; 4.99 µM in the assay on SK-MEL-5 melanoma; 22.2 µM with SF-268 CNS; 11.6 µM in the assay with NCI-H522 lung; 14.4 µM in the assay on RXF 393 renal. Further, the GI50 is 19.5 µM in the assay with DLD-1 colon, 6.71 µM with DMS 273 small cell lung, 16.9 µM in the assay with UACC-62 melanoma and 9.44 µM in the assay on CAKI-1 renal. In addition, the TGI turned out to be 64.1 µM in the assay on SN12C renal; 26.3 µM with MALME-3M melanoma; 29.4 µM in the assay on SK-MEL-5 melanoma; 51.8 µM in the assay with SF-268 CNS; 56 µM with NCI-H522 lung; 40 µM with RXF 393 renal. For the same compound, the TGI is above 100 µM with DLD-1 colon, above 100 µM with DMS 273 small cell lung, 39.6 µM in the assay with UACC-62 melanoma and 51.9 µM in the assay on CAKI-1 renal.

As to `O=C1C=CC(=O)c2nc3c(cc21)CCC3`, the TGI amounted to 40.3 µM with SN12C renal; 31.4 µM in the assay on MALME-3M melanoma; 45.9 µM in the assay with SK-MEL-5 melanoma; 37.3 µM in the assay with SF-268 CNS; 25.4 µM in the assay with NCI-H522 lung; 34.2 µM in the assay with RXF 393 renal. Also, the TGI with DLD-1 colon was determined as 36 µM; in the assay with DMS 273 small cell lung, 47.4 µM; in the assay with UACC-62 melanoma it was 33 µM; in the assay on CAKI-1 renal it was 31.4 µM.

With `CC(=O)NNc1nc(C)c(C(=O)/C=C/c2ccc(NC(C)=O)cc2)s1`, the TGI with SN12C renal, in the assay with MALME-3M melanoma, with SK-MEL-5 melanoma, in the assay with SF-268 CNS, with NCI-H522 lung and in the assay with RXF 393 renal was above 100 µM throughout. The TGI in the assay on DLD-1 colon, in the assay with DMS 273 small cell lung, in the assay on UACC-62 melanoma and in the assay with CAKI-1 renal was above 100 µM in each case.

Consider `CN(C)CC1CC/C(=C\c2ccc(O)cc2)C1=O` (configuration not stated), for which the TGI in the assay with SN12C renal stood at 14 µM; with MALME-3M melanoma it was 6.62 µM; in the assay on SK-MEL-5 melanoma, 20.4 µM; with SF-268 CNS, 23.1 µM; in the assay on NCI-H522 lung, 3.17 µM; in the assay on RXF 393 renal it was 4.8 µM. Further, the TGI came to 6.27 µM in the assay on DLD-1 colon, 9.68 µM in the assay with DMS 273 small cell lung, 15.5 µM in the assay on UACC-62 melanoma and 3.24 µM in the assay with CAKI-1 renal.

As to `CC(C)(C)c1cc2ccc(C(N)=O)cc2c(=O)[nH]1`, the TGI with SN12C renal, with MALME-3M melanoma, in the assay with SK-MEL-5 melanoma, in the assay on SF-268 CNS, with NCI-H522 lung and in the assay with RXF 393 renal was above 100 µM each time. Besides, the TGI in the assay with DLD-1 colon, in the assay with DMS 273 small cell lung, in the assay with UACC-62 melanoma and in the assay on CAKI-1 renal was above 100 µM in each case.

`C=CC[C@H](C[C@H](C[C@H](C[C@H](C[C@H](C[C@H](C[C@H](C[C@H](C[C@H](C[C@H](CCCCC)OC)OC)OC)OC)OC)OC)OC)OC)OC)OC`: the TGI in the assay on SN12C renal, in the assay with MALME-3M melanoma, in the assay with SK-MEL-5 melanoma, in the assay on SF-268 CNS, in the assay with NCI-H522 lung and with RXF 393 renal was above 100 µM each time. Besides, the TGI with DLD-1 colon, in the assay with DMS 273 small cell lung, in the assay with UACC-62 melanoma and in the assay on CAKI-1 renal was above 100 µM in each case.

For the compound `O=c1c(-c2ccccc2)c2oc(c1-c1ccccc1)CSCc1cccc(c1)CSC2`, the TGI was above 100 µM in the assay on SN12C renal; above 100 µM in the assay with MALME-3M melanoma; above 100 µM in the assay on SK-MEL-5 melanoma; 85.2 µM with SF-268 CNS; above 100 µM in the assay on NCI-H522 lung; 50.7 µM with RXF 393 renal. Also, the TGI with DLD-1 colon, with DMS 273 small cell lung, in the assay with UACC-62 melanoma and in the assay with CAKI-1 renal was above 100 µM in each case.

Consider `S=c1sc2c(n1-c1ccccc1)NC=NC2S` (configuration not stated), for which the TGI in the assay with SN12C renal, in the assay on MALME-3M melanoma, with SK-MEL-5 melanoma, with SF-268 CNS, in the assay with NCI-H522 lung and in the assay on RXF 393 renal was above 100 µM throughout. Also, the TGI in the assay on DLD-1 colon, with DMS 273 small cell lung, in the assay on UACC-62 melanoma and in the assay with CAKI-1 renal was above 100 µM each time.

For `C/C(CCn1[nH]c(=O)ccc1=O)=N\NC(=O)C(=O)NN`, the TGI with SN12C renal, in the assay with MALME-3M melanoma, with SK-MEL-5 melanoma, in the assay on SF-268 CNS, with NCI-H522 lung and in the assay with RXF 393 renal was above 100 µM throughout. In addition, the TGI in the assay with DLD-1 colon, in the assay on DMS 273 small cell lung, in the assay on UACC-62 melanoma and in the assay with CAKI-1 renal was above 100 µM in each case.

Turning to `O=C(Nc1ccccc1-c1nn(C(=S)Nc2ccccc2)c(=S)n(C(=S)Nc2ccccc2)c1=O)C(F)(F)F`, the TGI is above 100 µM in the assay on SN12C renal; above 79.1 µM in the assay on MALME-3M melanoma; 26 µM in the assay on SK-MEL-5 melanoma; above 100 µM in the assay on SF-268 CNS; 58.5 µM in the assay on NCI-H522 lung; above 100 µM in the assay with RXF 393 renal. Besides, the TGI was above 100 µM with DLD-1 colon, above 100 µM in the assay with DMS 273 small cell lung, 44.4 µM in the assay on UACC-62 melanoma and above 100 µM in the assay with CAKI-1 renal.

Regarding `CCOC(=O)C1=C(C(=O)OCC)C2c3ccccc3C=CN2C(C(=O)OCC)=C(SC)S1` (configuration not stated), the TGI with SN12C renal, in the assay with MALME-3M melanoma, in the assay on SK-MEL-5 melanoma, with SF-268 CNS, with NCI-H522 lung and in the assay with RXF 393 renal was above 100 µM each time. Moreover, the TGI with DLD-1 colon, in the assay with DMS 273 small cell lung, in the assay with UACC-62 melanoma and in the assay with CAKI-1 renal was above 100 µM in each case.

Turning to `COc1ccc(C(NC(=O)C[C@@H](C(=O)N(C)C(C)C(=O)O)N(C)C(=O)[C@@H]2CCCN2C(=O)[C@H](C(C)C)N(C)C(=O)C(C(C)C)N(C)C(=O)[C@H](Cc2ccccc2)N(C)C(=O)C(NC(=O)OC(C)(C)C)C(C)C)c2ccc(OC)cc2)cc1` (some centres not stated) (Boc-[ξV][NMeF][ξNMeV][NMeV]P[NMeD](X3)[ξNMeA]-OH), the GI50 in the assay with SN12C renal is 19.1 µM; with MALME-3M melanoma, 20.5 µM; in the assay with SK-MEL-5 melanoma, 15.2 µM; in the assay with SF-268 CNS it was 15.1 µM; in the assay on NCI-H522 lung it was 17.5 µM; with UACC-62 melanoma, 0.803 µM. In addition, the GI50 in the assay with CAKI-1 renal was 22.9 µM. The TGI in the assay with SN12C renal was 37.5 µM and 38.9 µM; with MALME-3M melanoma, 37.5 µM and 37.9 µM; with SK-MEL-5 melanoma, 12.7 µM and 28.5 µM; with SF-268 CNS, 31.9 µM and 28.6 µM; with NCI-H522 lung it was 27.4 µM and 31.3 µM; in the assay on RXF 393 renal it was 18.5 µM. The TGI with DLD-1 colon was 32.1 µM; in the assay on DMS 273 small cell lung it was 30.9 µM; in the assay with UACC-62 melanoma, 12.5 µM and 20.9 µM; in the assay with CAKI-1 renal, 37.5 µM.

Regarding `O=C(/C=C/c1ccc(O)cc1)c1ccc(O)cc1`, the TGI in the assay with SN12C renal was 79 µM; in the assay on MALME-3M melanoma, 70 µM; in the assay with SK-MEL-5 melanoma, 44.2 µM; in the assay on SF-268 CNS, 71.8 µM; in the assay with NCI-H522 lung, 9.22 µM; in the assay with RXF 393 renal, 50.1 µM. In addition, the TGI is 36.9 µM in the assay with DLD-1 colon, 36.9 µM in the assay with DMS 273 small cell lung, above 66.8 µM in the assay on UACC-62 melanoma and 37.9 µM in the assay with CAKI-1 renal.

Take `COC(=O)CC(c1ccccc1)C1(c2ccccc2)SCCS1` (configuration not stated): the TGI in the assay with SN12C renal, with MALME-3M melanoma, in the assay on SK-MEL-5 melanoma, with SF-268 CNS, in the assay with NCI-H522 lung and in the assay on RXF 393 renal was above 290 µM in each case. Besides, the TGI with DLD-1 colon, in the assay with DMS 273 small cell lung, in the assay on UACC-62 melanoma and in the assay with CAKI-1 renal was above 290 µM in each case.
